Assay results published in ChEMBL document CHEMBL2380212, “Synthesis, single crystal and antitumor activities of benzimidazole-quinazoline hybrids” (Bioorg Med Chem Lett, 2013).

Key:
[1] = n-Octanol-phosphate buffer partition coefficient, log P of the compound at pH 7.4 by shake flask method; assay type: physicochemical
[2] = tested on: MDA-MB-468; experiment: Cytotoxicity against human MDA-MB-468 cells at 10 uM after 48 hrs by SRB assay; assay type: functional; details: MDA-MB-468, 48 h, read-out: GI
[3] = tested on: T47D; experiment: Cytotoxicity against human T47D cells at 10 uM after 48 hrs by SRB assay; assay type: functional; details: read-out: GI
[4] = tested on: MDA-MB-231; experiment: Cytotoxicity against human MDA-MB-231 cells at 10 uM after 48 hrs by SRB assay; assay type: functional; details: MDA-MB-231, 48 h, read-out: GI
[5] = tested on: DU-145; experiment: Cytotoxicity against human DU145 cells at 10 uM after 48 hrs by SRB assay; assay type: functional; details: DU-145, 48 h, read-out: GI
[6] = tested on: UO-31; experiment: Cytotoxicity against human UO31 cells at 10 uM after 48 hrs by SRB assay; assay type: functional; details: UO-31, 48 h, read-out: GI
[7] = tested on: PC-3; experiment: Cytotoxicity against human PC3 cells at 10 uM after 48 hrs by SRB assay; assay type: functional; details: PC-3, 48 h, read-out: GI
[8] = tested on: RXF 393; experiment: Cytotoxicity against human RXF393 cells at 10 uM after 48 hrs by SRB assay; assay type: functional; details: RXF 393, 48 h, read-out: GI
[9] = tested on: SN12C; experiment: Cytotoxicity against human SN12C cells at 10 uM after 48 hrs by SRB assay; assay type: functional; details: read-out: GI
[10] = tested on: ACHN; experiment: Cytotoxicity against human ACHN cells at 10 uM after 48 hrs by SRB assay; assay type: functional; details: read-out: GI
[11] = tested on: 786-0; experiment: Cytotoxicity against human 786-0 cells at 10 uM after 48 hrs by SRB assay; assay type: functional; details: 786-0, 48 h, read-out: GI
[12] = tested on: SK-OV-3; experiment: Cytotoxicity against human SKOV3 cells at 10 uM after 48 hrs by SRB assay; assay type: functional; details: SK-OV-3, 48 h, read-out: GI
[13] = tested on: OVCAR-8; experiment: Cytotoxicity against human OVCAR8 cells at 10 uM after 48 hrs by SRB assay; assay type: functional; details: OVCAR-8, 48 h, read-out: GI
[14] = tested on: OVCAR-5; experiment: Cytotoxicity against human OVCAR5 cells at 10 uM after 48 hrs by SRB assay; assay type: functional; details: OVCAR-5, 48 h, read-out: GI
[15] = tested on: OVCAR-4; experiment: Cytotoxicity against human OVCAR4 cells at 10 uM after 48 hrs by SRB assay; assay type: functional; details: OVCAR-4, 48 h, read-out: GI
[16] = tested on: OVCAR-3; experiment: Cytotoxicity against human OVCAR3 cells at 10 uM after 48 hrs by SRB assay; assay type: functional; details: OVCAR-3, 48 h, read-out: GI
[17] = tested on: IGROV-1; experiment: Cytotoxicity against human IGROV1 cells at 10 uM after 48 hrs by SRB assay; assay type: functional; details: IGROV-1, 48 h, read-out: GI
[18] = tested on: UACC-62; experiment: Cytotoxicity against human UACC62 cells at 10 uM after 48 hrs by SRB assay; assay type: functional; details: UACC-62, 48 h, read-out: GI
[19] = tested on: SK-MEL-2; experiment: Cytotoxicity against human SK-MEL-2 cells at 10 uM after 48 hrs by SRB assay; assay type: functional; details: SK-MEL-2, 48 h, read-out: GI
[20] = tested on: M14; experiment: Cytotoxicity against human M14 cells at 10 uM after 48 hrs by SRB assay; assay type: functional; details: M14, 48 h, read-out: GI
[21] = tested on: U-251; experiment: Cytotoxicity against human U251 cells at 10 uM after 48 hrs by SRB assay; assay type: functional; details: U-251, 48 h, read-out: GI
[22] = tested on: LOX IMVI; experiment: Cytotoxicity against human LOXIMVI cells at 10 uM after 48 hrs by SRB assay; assay type: functional; details: read-out: GI
[23] = tested on: SNB-19; experiment: Cytotoxicity against human SNB19 cells at 10 uM after 48 hrs by SRB assay; assay type: functional; details: SNB-19, 48 h, read-out: GI
[24] = tested on: SF-539; experiment: Cytotoxicity against human SF539 cells at 10 uM after 48 hrs by SRB assay; assay type: functional; details: SF-539, 48 h, read-out: GI
[25] = tested on: SF-268; experiment: Cytotoxicity against human SF268 cells at 10 uM after 48 hrs by SRB assay; assay type: functional; details: SF-268, 48 h, read-out: GI
[26] = tested on: KM12; experiment: Cytotoxicity against human KM12 cells at 10 uM after 48 hrs by SRB assay; assay type: functional; details: KM12, 48 h, read-out: GI
[27] = tested on: HT-29; experiment: Cytotoxicity against human HT-29 cells at 10 uM after 48 hrs by SRB assay; assay type: functional; details: HT-29, 48 h, read-out: GI
[28] = tested on: HCT-15; experiment: Cytotoxicity against human HCT15 cells at 10 uM after 48 hrs by SRB assay; assay type: functional; details: HCT-15, 48 h, read-out: GI
[29] = tested on: HCT-116; experiment: Cytotoxicity against human HCT116 cells at 10 uM after 48 hrs by SRB assay; assay type: functional; details: HCT-116, 48 h, read-out: GI
[30] = tested on: COLO 205; experiment: Cytotoxicity against human COLO205 cells at 10 uM after 48 hrs by SRB assay; assay type: functional; details: COLO 205, 48 h, read-out: GI
[31] = tested on: NCI-H522; experiment: Cytotoxicity against human NCI-H522 cells at 10 uM after 48 hrs by SRB assay; assay type: functional; details: NCI-H522, 48 h, read-out: GI
[32] = tested on: NCI-H460; experiment: Cytotoxicity against human NCI-H460 cells at 10 uM after 48 hrs by SRB assay; assay type: functional; details: NCI-H460, 48 h, read-out: GI
[33] = tested on: NCI-H322M; experiment: Cytotoxicity against human NCI-H322M cells at 10 uM after 48 hrs by SRB assay; assay type: functional; details: read-out: GI
[34] = tested on: NCI-H226; experiment: Cytotoxicity against human NCI-H226 cells at 10 uM after 48 hrs by SRB assay; assay type: functional; details: NCI-H226, 48 h, read-out: GI
[35] = tested on: NCI-H23; experiment: Cytotoxicity against human NCI-H23 cells at 10 uM after 48 hrs by SRB assay; assay type: functional; details: NCI-H23, 48 h, read-out: GI
[36] = tested on: HOP-92; experiment: Cytotoxicity against human HOP92 cells at 10 uM after 48 hrs by SRB assay; assay type: functional; details: HOP-92, 48 h, read-out: GI
[37] = tested on: A549; experiment: Cytotoxicity against human A549 cells at 10 uM after 48 hrs by SRB assay; assay type: functional; details: A549, 48 h, read-out: GI
[38] = tested on: SR; experiment: Cytotoxicity against human SR cells at 10 uM after 48 hrs by SRB assay; assay type: functional; details: read-out: GI
[39] = tested on: MOLT-4; experiment: Cytotoxicity against human MOLT4 cells at 10 uM after 48 hrs by SRB assay; assay type: functional; details: MOLT-4, 48 h, read-out: GI
[40] = tested on: RPMI-8226; experiment: Cytotoxicity against human RPMI8226 cells at 10 uM after 48 hrs by SRB assay; assay type: functional; details: RPMI-8226, 48 h, read-out: GI
[41] = tested on: K562; experiment: Cytotoxicity against human K562 cells at 10 uM after 48 hrs by SRB assay; assay type: functional; details: K562, 48 h, read-out: GI
[42] = tested on: HL-60(TB); experiment: Cytotoxicity against human HL-60(TB) cells at 10 uM after 48 hrs by SRB assay; assay type: functional; details: HL-60, 48 h, read-out: GI

C=CCn1c(C)nc2ccc(Nc3nc(Cl)nc4ccccc34)cc21
logD [1]: 2.1
inhibition of growth at 10 µM [2]: 16.3%
inhibition of growth at 10 µM [3]: 18.5%
inhibition of growth at 10 µM [4]: 10.1%
inhibition of growth at 10 µM [5]: < 10%
inhibition of growth at 10 µM [6]: < 10%
inhibition of growth at 10 µM [7]: 18%
inhibition of growth at 10 µM [8]: 12.5%
inhibition of growth at 10 µM [9]: < 10%
inhibition of growth at 10 µM [10]: < 10%
inhibition of growth at 10 µM [11]: 12.2%
inhibition of growth at 10 µM [12]: < 10%
inhibition of growth at 10 µM [13]: < 10%
inhibition of growth at 10 µM [14]: < 10%
inhibition of growth at 10 µM [15]: < 10%
inhibition of growth at 10 µM [16]: < 10%
inhibition of growth at 10 µM [17]: < 10%
inhibition of growth at 10 µM [18]: < 10%
inhibition of growth at 10 µM [19]: < 10%
inhibition of growth at 10 µM [20]: < 10%
inhibition of growth at 10 µM [21]: < 10%
inhibition of growth at 10 µM [22]: < 10%
inhibition of growth at 10 µM [23]: < 10%
inhibition of growth at 10 µM [24]: < 10%
inhibition of growth at 10 µM [25]: 10.1%
inhibition of growth at 10 µM [26]: < 10%
inhibition of growth at 10 µM [27]: < 10%
inhibition of growth at 10 µM [28]: < 10%
inhibition of growth at 10 µM [29]: < 10%
inhibition of growth at 10 µM [30]: < 10%
inhibition of growth at 10 µM [31]: < 10%
inhibition of growth at 10 µM [32]: < 10%
inhibition of growth at 10 µM [33]: < 10%
inhibition of growth at 10 µM [34]: < 10%
inhibition of growth at 10 µM [35]: < 10%
inhibition of growth at 10 µM [36]: < 10%
inhibition of growth at 10 µM [37]: 18.5%
inhibition of growth at 10 µM [38]: < 10%
inhibition of growth at 10 µM [39]: 21.3%
inhibition of growth at 10 µM [40]: 24.7%
inhibition of growth at 10 µM [41]: 25.2%
inhibition of growth at 10 µM [42]: 15.9%
